Test results published in patent publication US20210052600A1, “THERAPEUTIC AGENTS FOR STRESS URINARY INCONTINENCE AND INCOTINENCE OF FECES” (Takeda Pharmaceutical Company Limited, priority 2017, published 2021).

Key:
urethra-closing response = test: MT (threshold inducing urethra-closing response) under transcranial magnetic stimulation in healthy female volunteers; type: in vivo, human
Experimental: The test subjects were healthy female volunteers having a body weight of at least 45 kg (average: 50.91 kg, standard deviation: 3.346) and a BMI value of 18.5 kg/m^2 to 25.0 kg/m^2 (average: 19.57 kg/m^2, standard deviation: 0.929).
A washout period of at least 7 days was provided between the treatments.
A capsule containing 40 mg of duloxetine was orally administered as duloxetine together with water. A placebo capsule containing saccharose and spherical starch granules was orally administered as a placebo for duloxetine together with water.
Specifically, during the TMS, the output of a magnetic stimulator (Magstim Rapid Square, manufactured by Magstim Co., Ltd.) was increased by 5% each time using 110 mm double cone coil, and the minimum output at which urethra-closing response occurred abruptly was determined and used as MT (%). The urethra-closing response was detected by measuring contractile responses within the urethra. The contractile response within the urethra was measured using Duet Logic G2 (manufactured by Mediwatch Ltd.) and UniTip (manufactured by Unisensor AG). MT was measured again after administration of each drug, and the rate of change (%) from the baseline was calculated. The rate of change was determined by dividing MT after administration of each drug by MT before administration.

[1] = Plasma concentration of Compound A in healthy female volunteers after a single oral dose of Compound A′; conditions: no unit in table (ng/mL)
Experimental: In each period, the test subjects received any of Treatments A to D once according to Table 10, and change in the plasma concentration of the administered compound was measured over 24 hours after each Treatment.
Specifically, 100 mL of the injectable water containing 20 mg or 90 mg of Compound A′ based on its free form was supplemented with a sweetener, and this solution was orally administered as Compound A′. As a placebo for Compound A′, 100 mL of the injectable water was supplemented with a sweetener, and this solution was orally administered.

urethral resistance = test: Urethral resistance (LPP) during intravesical pressure rise by electrical stimulation of rat abdominal muscle; type: in vivo; conditions: mean ± SEM; for LPP Post: 30 minutes after administration; for LPP Increase: Post minus Pre; for LPP Pre: before administration
Experimental: Fifty six female rats of Sprague-Dawley strain (hereinafter, referred to as “SD strain”) were used. The rats were anesthetized with urethane, and their spinal cord was transected at the T8-T9 (the eighth thoracic cord—the ninth thoracic cord) level for the elimination of reflex voiding. Isoflurane inhalation was added, if necessary. After opening of the abdomen, a catheter (PE-100) was inserted into the bladder. In order to secure reduced urethral resistance, unilateral nerve to iliococcygeus and pubococcygeus muscles was transected. For intraduodenal administration, another catheter (PE-50) was inserted into the duodenum in advance. The abdominal muscle and skin were each closed with sutures. Two (right and left) sites of abdominal skin near the diaphragm were cut to expose abdominal muscle. The bladder was emptied through the catheter, followed by the injection of 0.2 to 0.3 mL of 0.1% Evans blue solution. Change in intravesical pressure was recorded using the bladder catheter via a pressure transducer, an electric signal amplifier, and an analog-to-digital converter. While change in intravesical pressure was recorded, the presence or absence of fluid leakage from the urethral orifice was observed under the electrical stimulation of the exposed abdominal muscle using an electrical stimulator and an isolator. […] The peak of the intravesical pressure during the stimulation of the abdominal muscle was measured, and the lowest pressure at which the fluid leakage was observed among the trials was defined as leak point pressure (hereinafter, referred to as “LPP”) for the electrical abdominal muscle stimulation method and used as an index for urethral resistance. Each drug was evaluated for its effect by comparing LPP before drug administration with that after drug administration. […] The drugs were suspended in 0.5% methylcellulose solution (MC). […] LPP was measured again 30 minutes after administration. Regarding change in LPP before and after drug administration, the differences between the mean values of the drug-treated and vehicle groups were analyzed by the one-tailed Williams' test.

[2] = 20 mg single oral dose, Predose
[3] = 90 mg single oral dose, Predose

## CC(C)N(C)c1cnc2c(n1)OCCNC2.Cl [Compound A′, N-methyl-N-(1-methylethyl)-6,7,8,9-tetrahydropyrazino[2,3-f][1,4]oxazeine-3-amine]
urethra-closing response; 20 mg group, at 0.5 hours post dose
  maximum change from baseline in MT in response to TMS: −8.1%
urethra-closing response; 20 mg single oral dose, 0.5 hr
  MT of the urethra-closing response in response to TMS, Mean: 58.1%
  Rate of change from baseline of MT of the urethra-closing response in response to TMS, Mean: −8.1%
urethra-closing response; 20 mg single oral dose, 2 hr
  MT of the urethra-closing response in response to TMS, Mean: 59.0%
  Rate of change from baseline of MT of the urethra-closing response in response to TMS, Mean: −7.3%
urethra-closing response; 20 mg single oral dose, 6 hr
  MT of the urethra-closing response in response to TMS, Mean: 64.2%
  Rate of change from baseline of MT of the urethra-closing response in response to TMS, Mean: −2.1%
urethra-closing response; [2]
  MT of the urethra-closing response in response to TMS, Mean: 66.3%
urethra-closing response; 90 mg group, at 3 hours post dose
  maximum change from baseline in MT in response to TMS: −17.2%
urethra-closing response; 90 mg single oral dose, 0.5 hr
  MT of the urethra-closing response in response to TMS, Mean: 55.9%
  Rate of change from baseline of MT of the urethra-closing response in response to TMS, Mean: −14.1%
urethra-closing response; 90 mg single oral dose, 2 hr
  MT of the urethra-closing response in response to TMS, Mean: 52.8%
  Rate of change from baseline of MT of the urethra-closing response in response to TMS, Mean: −17.2%
urethra-closing response; 90 mg single oral dose, 6 hr
  MT of the urethra-closing response in response to TMS, Mean: 56.3%
  Rate of change from baseline of MT of the urethra-closing response in response to TMS, Mean: −13.7%
urethra-closing response; [3]
  MT of the urethra-closing response in response to TMS, Mean: 70.0%
[1]; 20 mg single oral dose, 0.5 hr
  plasma concentration of compound A, Mean: 29.21
  plasma concentration of compound A, Median: 28.40
[1]; 20 mg single oral dose, 1 hr
  plasma concentration of compound A, Mean: 25.19
  plasma concentration of compound A, Median: 24.10
[1]; 20 mg single oral dose, 2 hr
  plasma concentration of compound A, Mean: 20.46
  plasma concentration of compound A, Median: 19.20
[1]; 20 mg single oral dose, 3 hr
  plasma concentration of compound A, Mean: 14.38
  plasma concentration of compound A, Median: 13.10
[1]; 20 mg single oral dose, 6 hr
  plasma concentration of compound A, Mean: 3.476
  plasma concentration of compound A, Median: 3.760
[1]; 20 mg single oral dose, 8 hr
  plasma concentration of compound A, Mean: 1.416
  plasma concentration of compound A, Median: 1.590
[1]; 20 mg single oral dose, 12 hr
  plasma concentration of compound A, Mean: 0.1327
  plasma concentration of compound A, Median: 0.000
[1]; [2]
  plasma concentration of compound A, Mean: 0.000
  plasma concentration of compound A, Median: 0.000
[1]; 90 mg single oral dose, 0.5 hr
  plasma concentration of compound A, Mean: 127.3
  plasma concentration of compound A, Median: 114.0
[1]; 90 mg single oral dose, 1 hr
  plasma concentration of compound A, Mean: 126.0
  plasma concentration of compound A, Median: 113.0
[1]; 90 mg single oral dose, 2 hr
  plasma concentration of compound A, Mean: 152.8
  plasma concentration of compound A, Median: 145.0
[1]; 90 mg single oral dose, 3 hr
  plasma concentration of compound A, Mean: 122.4
  plasma concentration of compound A, Median: 127.0
[1]; 90 mg single oral dose, 6 hr
  plasma concentration of compound A, Mean: 52.81
  plasma concentration of compound A, Median: 47.30
[1]; 90 mg single oral dose, 8 hr
  plasma concentration of compound A, Mean: 24.69
  plasma concentration of compound A, Median: 20.30
[1]; 90 mg single oral dose, 12 hr
  plasma concentration of compound A, Mean: 5.612
  plasma concentration of compound A, Median: 4.450
[1]; [3]
  plasma concentration of compound A, Mean: 0.000
  plasma concentration of compound A, Median: 0.000
Urethral resistance; 0.3 mg/kg i.d.
  LPP Post: 55.0 ± 5.4 cmH2O
  LPP Increase: 7.8 ± 3.2 cmH2O
  LPP Pre: 47.2 ± 5.7 cmH2O
Urethral resistance; 1 mg/kg i.d.
  LPP Post: 61.5 ± 4.9 cmH2O
  LPP Increase: 14.2 ± 2.7 cmH2O
  LPP Pre: 47.3 ± 5.0 cmH2O
Urethral resistance; 3 mg/kg i.d.
  LPP Post: 77.3 ± 8.1 cmH2O
  LPP Increase: 29.7 ± 5.5 cmH2O
  LPP Pre: 47.6 ± 3.1 cmH2O
